# Key:
# [1] = system: LPS induced IL-23 (p19/p40) in DC cells differentiated from human PBMC; experiment: IL23-p19 ELISA, dendritic cells (DC differentiated from human PBMC), IFNγ primed, LPS stimulated; format: cell-based; conditions: human PBMC-derived dendritic cells, 1 μg/ml LPS, 18 hours, 10 pt
# Protocol: Compound Screening Using DC Cells
# 1. Differentiation of PBMC's to DC Cells:
# Human PBMC cells (400 million) obtained from the vendor were transferred into a T-175 flask containing 15 ml RPMI media (10% FBS) and incubate for 2 hours at 37° C. After 2 hours, the media including floating cells was aspirated out carefully and 12 ml of fresh RPMI media (10% FBS) containing GMCSF (100 ng/ml) and IL4 (20 ng/ml) was added, and the flask was kept in a 37° C. incubator for 7 days.
# After 3 days, fresh GMCSF (100 ng/ml) and IL4 (20 ng/ml) were added to the flask and the incubation continued. After 7 days, the fully differentiated cells were harvested by spinning down (1200 rpm/5 min) and aspirating the media. The cells were suspended in fresh RPMI media (10% FBS) containing 50 ng/ml IFNγ (1000 U/ml) and then plated (50K/well in 100 μl) onto a white clear bottom 96 well plate and left in a 37° C. incubator for 24 hours.
# 2. Addition of Compounds:
# After 24 hours incubation, 100 μl of RPMI media was added containing 2× concentrated test compound per well to the above cell-culture media (final concentration becomes 1×) and the plates were pre-incubated for 1 hour at 37° C. before stimulating with LPS.
# After 1 hour compound pre-incubation, 10 μl per well of 20× concentrated LPS solution in RPMI media was added to give a final concentration of 1 μg/ml. The mixture was shaken and incubated the plates at 37° C. for an additional 18 hours.
# 155 μl of the supernatant was harvested from each well carefully (without the tip touching the bottom of the well) and to the remaining 50 μl/well of the cell culture plate was added 50 μl of Cell Titer Glo reagent. The mixture was incubated for 1-2 minutes on a shaker and the plate was read for luminescence intensity to determine the compound cytotoxicity. The cell culture supernatant collected above was used to carry out IL23 ELISA (65 μl-Supernatant) and IL10 ELISA (90 μl-Supernatant) as described below.
# Human IL-23 (p19/p40) ELISA Protocol (e-Biosciences)
# To 10.5 ml PBS add 50 μl of anti-IL23 (p19) was added capture antibody (2.5 μg/ml). The mixture was mixed well and 100 μl of the coating solution was added to each well of the 96 well white plates from Pierce. The wells were covered and incubated overnight at 4° C.
# The anti-IL23 (p19)-antibody-coated plates were washed 2× using TBST (use plate washer) and blocked using 200 μl of 0.5% Casein for 1.5-2 hours at room temperature with shaking.
# The plates were washed 2× using TBST and the supernatant was transferred (65 μl/well) to the above pre-blocked/IL23 (p19)-antibody-coated 96 well plate, and incubated at room temperature for 1.5 hours with shaking.
# The plates were washed 4× using TBST (plate washer) and 100 μl/well detection antibody solution prepared from 2 μl of biotin labeled anti-IL-12 (p40/p70) antibody in 11 ml 1% BSA/PBS solution (1-5000 dilution) was added. The plates were incubated for 1 hour with shaking at room temperature.
# Again, the plates were washed 4× with TBST and 100 μl of HRP labeled Streptavidin (R&D Systems) solution (10 μl/10 ml 1% BSA solution) was added, and the plates were incubated at room temperature for another 45 minutes with shaking.
# After 45 minutes, the plates were washed with TBST 4× and 100 ul/well Super Signal ELISA Pico Chemiluminescent Substrate from Pierce (3.5 ml A+3.5 ml B+3.5 ml MQ water) was added. The plates were shaken for 1-2 minutes then read on a plate reader.
# [2] = system: LPS induced IL23p19 in THP-1 cells; experiment: LPS Induced IL23p19 in THP-1 Cells (with IFNγ Primed) Assay; format: cell-based; conditions: Homo sapiens; THP-1 cells primed with IFNγ 50 ng/mL, 1 μg/mL LPS, 18 hours, 10 pt; read-out: IL23-p19 ELISA, THP1-IFNy, LPS, 10 pt EC50
# Text: LPS Induced IL23p19 in THP-1 Cells (with IFNγ Primed) Assay
# THP-1 Cells (ATCC, Cat # TIB-202), Dimethyl Sulfoxide (DMSO) (Sigma-Aldrich, Cat # D2650), RPMI 1640 (Cellgro, Cat #10-040-CM), Fetal Bovine Serum (Sigma, Cat # F4135), Albumin From Bovine Serum (BSA) (Sigma-Aldrich, Cat # A7906), LPS (Serotype K-235, Sigma, Product Number L 2143), IFNγ (Peprotech, Cat #300-02), Capture antibody: Human IL-23p19 ELISA (e-Bioscience, Cat. #14-7238-85), Detection antibody: Primary Mouse Biotinylated anti-human IL-12 (p40/p70) (e-Bioscience, Cat. #13-7129-85), Secondary HRP-conjugated Streptavidin (R&D Systems, Cat # DY998), 1×PBST Washing Buffer (PBS-Tween tablet) (VWR International, Cat #80058-558), ELISA Blocking Buffer (PBS with 1% BSA), ELISA Dilution Buffer (PBS with 1% BSA), 384 Well Flat-Bottom, MaxiSorp Black Immuno Plates (Thermo Scientific, Cat #12-565-346), 384 Well Flat-Bottom, White Tissue Culture Plates (Thermo Scientific, Cat #12-565-343), Super Signal ELISA Pico Chemiluminescent Substrate (Thermo Scientific, Cat #37070), Cell Titer Glo reagent (Promega, Cat # G7573), Positive control, IKK2VI inhibitor (Calbiochem, Cat #401483), AquaMax 4000 plate washer (Molecular Devices), Luminometer, Wallac Victor2 1420 Multilabel Counter.
# On day 1, 50K/well THP-1 cells were seeded and primed with IFNγ (50 ng/mL) in 384-well plates for about 18 hours in RPMI media with 10% FBS. On day 2, the compound was serially diluted in DMSO from 5 mM in 3-fold dilutions, and then diluted 1:125 in RPMI media with 10% FBS. 50 μL/well 2× compound was added to 50 μL/well THP-1 cells (with IFNγ primed) in duplicate in 384 well tissue culture plates. The cells were pre-incubated with compound for 1 hour at 37° C., 5% CO2 before addition of 10 μL/well 11×LPS to give a final concentration of 1 μg/mL LPS. Day 3, after stimulation for 18 hours at 37° C., 5% CO2, the assay plate was centrifuged and 70 μL/well supernatant was harvested. IL-23p19 protein in 70 μL/well of supernatant was measured by sandwich ELISA, and 25 μl/well Cell Titer Glo reagent was added to the remaining cells to measure compound toxicity.
# Human IL-23p19 Sandwich ELISA:
# Maxisorp immuno ELISA plates were pre-coated with 25 μL/well of anti-IL-23p19 capture antibody (2.5 ug/mL) in PBS overnight at room temperature. After washing with 1×PBST, the plates were blocked using 100 μL/well of 1% BSA in PBS for 2 hours at room temperature. The plates were washed three times with 1×PBST and 70 μL/well supernatant were added. The plates were incubated at room temperature for 2 hours with shaking and washed three times with 1×PBST. 25 μL/well of biotin labeled anti-IL-12 (p40/p70) detection antibody (100 ng/mL) in PBS with 1% BSA was added and the plates were incubated at room temperature for 2 hours with shaking. After washing three times with 1×PBST, 25 μL/well of streptavidin-HRP (1:200) in PBS with 1% BSA was added and the plates were incubated at room temperature for 20 minutes with shaking. The plates were washed three times with 1×PBST and 25 μL/well of Super Signal ELISA Pico Chemiluminescent Substrate were added. The plates were read with a luminometer, and the chemiluminescence values were entered into Athena (Rigel) for curve fitting, EC50 calculation, and database storage.
Compound,EC50 [2] [nM],EC50 [1] [nM]
"O=C(Nc1ccc(N2CCOCC2)cc1N1CCOCC1)c1csc(-c2cn[nH]c2)n1 [I-15, N-(2,4-dimorpholinophenyl)-2-(1H-pyrazol-4-yl)thiazole-4-carboxamide]",173,484
"O=C(Nc1ccc(N2CCOCC2)cc1N1CCOCC1)c1cccc(-c2cn[nH]c2)n1 [I-13, N-(2,4-dimorpholinophenyl)-6-(1H-pyrazol-4-yl)picolinamide]",1730,14400
"CN(CCN1CCOCC1)c1ccc(NC(=O)c2cccc(-c3cn[nH]c3)n2)c(N2CCCCC2)c1 [I-69, N-(4-(methyl(2-morpholinoethyl)amino)-2-(piperidin-1-yl)phenyl)-6-(1H-pyrazol-4-yl)picolinamide]",2630,2820
"O=C(Nc1ccc(N2CCOCC2)cc1N1CCC(F)(F)CC1)c1csc(-c2cn[nH]c2)n1 [I-21, N-(2-(4,4-difluoropiperidin-1-yl)-4-morpholinophenyl)-2-(1H-pyrazol-4-yl)thiazole-4-carboxamide]",465,1000
"CC1(O)CCN(c2cc(N3CCOCC3)ccc2NC(=O)c2cccc(-c3cn[nH]c3)n2)CC1 [I-16, N-(2-(4-hydroxy-4-methylpiperidin-1-yl)-4-morpholinophenyl)-6-(1H-pyrazol-4-yl)picolinamide]",740,1720
"O=C(Nc1ccc(N2CCOCC2)cc1N1CCOCC1)c1ccc(-c2cn[nH]c2)o1 [I-14, N-(2,4-dimorpholinophenyl)-5-(1H-pyrazol-4-yl)furan-2-carboxamide]",178,1920
"O=C(Nc1ccc(N2CCOCC2)cc1N1CCCCC1)c1ccc(-c2cn[nH]c2)o1 [I-37, N-(4-morpholino-2-(piperidin-1-yl)phenyl)-5-(1H-pyrazol-4-yl)furan-2-carboxamide]",262,153
"COc1ccc(N2CCOCC2)cc1NC(=O)c1csc(-c2cn[nH]c2)n1 [I-41, N-(2-methoxy-5-morpholinophenyl)-2-(1H-pyrazol-4-yl)thiazole-4-carboxamide]",3920,9220
"O=C(Nc1cc(C(F)(F)CN2CCOCC2)ccc1N1CCCCC1)c1ccc(-c2cn[nH]c2)o1 [I-34, N-(5-(1,1-difluoro-2-morpholinoethyl)-2-(piperidin-1-yl)phenyl)-5-(1H-pyrazol-4-yl)furan-2-carboxamide]",1540,6620
"O=C(Nc1cc(C(F)(F)CN2CCOCC2)ccc1N1CCCCC1)c1csc(-c2cn[nH]c2)n1 [I-35, N-(5-(1,1-difluoro-2-morpholinoethyl)-2-(piperidin-1-yl)phenyl)-2-(1H-pyrazol-4-yl)thiazole-4-carboxamide]",1080,2600
"O=C(Nc1ccc(CCN2CCOCC2)cc1N1CCCCC1)c1csc(-c2cn[nH]c2)n1 [I-56, N-(4-(2-morpholinoethyl)-2-(piperidin-1-yl)phenyl)-2-(1H-pyrazol-4-yl)thiazole-4-carboxamide]",2370,9560
"O=C(Nc1cc(N2CCOCC2)ccc1N1CCCCC1)c1ccc(-c2cn[nH]c2)o1 [I-25, N-(5-morpholino-2-(piperidin-1-yl)phenyl)-5-(1H-pyrazol-4-yl)furan-2-carboxamide]",645,532

# Now those with a lower EC50 [2], led by results:
EC50 [2] [nM],Compound,EC50 [1] [nM]
167,"O=C(Nc1ccc(CC(=O)N2CCOCC2)cc1N1CCCCC1)c1csc(-c2cn[nH]c2)n1 [I-53, N-(4-(2-morpholino-2-oxoethyl)-2-(piperidin-1-yl)phenyl)-2-(1H-pyrazol-4-yl)thiazole-4-carboxamide]",408
130,"O=C(Nc1ccc(CN2CCOCC2)cc1N1CCCCC1)c1csc(-c2cn[nH]c2)n1 [I-50, N-(4-(morpholinomethyl)-2-(piperidin-1-yl)phenyl)-2-(1H-pyrazol-4-yl)thiazole-4-carboxamide]",71.7
105,"O=C(Nc1cc(OCCN2CCOCC2)ccc1N1CCCCC1)c1csc(-c2cn[nH]c2)n1 [I-29, N-(5-(2-morpholinoethoxy)-2-(piperidin-1-yl)phenyl)-2-(1H-pyrazol-4-yl)thiazole-4-carboxamide]",51.2
93,"O=C(Nc1ccc(CCN2CCOCC2)cc1N1CCCCC1)c1cccc(-c2cn[nH]c2)n1 [I-54, N-(4-(2-morpholinoethyl)-2-(piperidin-1-yl)phenyl)-6-(1H-pyrazol-4-yl)picolinamide]",163
76.4,"O=C(Nc1ccc(N2CCOCC2)cc1N1CCC(F)CC1)c1csc(-c2cn[nH]c2)n1 [I-6, N-(2-(4-fluoropiperidin-1-yl)-4-morpholinophenyl)-2-(1H-pyrazol-4-yl)thiazole-4-carboxamide]",114
36,"CN1CCN(c2ccc(NC(=O)c3csc(-c4cn[nH]c4)n3)c(N3CCC(F)CC3)c2)CC1 [I-9, N-(2-(4-fluoropiperidin-1-yl)-4-(4-methylpiperazin-1-yl)phenyl)-2-(1H-pyrazol-4-yl)thiazole-4-carboxamide]",67.2
